Here are results for 1 compound from article PMC8003975 (Cancers, 2021).

The subject of test [1] is survivin. Put plainly: Western blot of treated HNC cells. It is filed as cell-based, human. The conditions noted are these: Cal27 and JHU029 cells, 48 hr; 2% BME or 10 µg/mL M-I.
Method: Bitter melon extract (BME) was prepared from the Chinese variety of young bitter melons (raw and green) as described previously [17]. Briefly, BME was prepared by aqueous extraction from whole fruit without seeds using a household juicer at room temperature with subsequent centrifugation at 15000× g at 4 °C for 30 min. BME was stored at −80 °C for further analysis. Cal27 and JHU029 cells were treated with 2% BME and JHU022 cells were treated with 3% BME as described previously [17, 21]. […] The powder was dissolved in DMSO and added to the cells at different concentrations. Based on cytotoxicity data, Cal27 and JHU029 cells were treated with 10 µg/mL and JHU022 cells were treated with 20 µg/mL dose of M-I and incubated for 48 hr for further experiments. All the experiments were done at least in triplicate.
HRP conjugated anti-mouse or anti-rabbit secondary antibodies were purchased from Bio-Rad (Hercules, CA, USA). The blot was reprobed with HRP conjugated β-actin antibody (1:5000; SBT) to compare protein load in each lane. […]
The subject of test [2] is c-Myc. Briefly: Western blot of treated HNC cells. It is filed as cell-based, human. Particulars: Cal27 and JHU029 cells, 48 hr; 2% BME or 10 µg/mL M-I. As to the method: (§1) Figure 3 Momordicine-I inhibits downstream of c-Met signaling in HNC cells. Representative Western blot image for c-Myc, survivin and cyclin D1 expression in Cal27 and JHU029 cells with treatment of BME or M-I. The same membrane used in panel A was reprobed. Actin was used as internal control. Quantitative representation of Western blot band intensities (right panel). Small bar indicates standard error (*** p < 0.001).
(§2) Bitter melon extract (BME) was prepared from the Chinese variety of young bitter melons (raw and green) as described previously. Briefly, BME was prepared by aqueous extraction from whole fruit without seeds using a household juicer at room temperature with subsequent centrifugation at 15000× g at 4 °C for 30 min. BME was stored at −80 °C for further analysis. Cal27 and JHU029 cells were treated with 2% BME and JHU022 cells were treated with 3% BME as described previously. The momordicine-I (>98% pure) was purchased from Chemfaces (Cat. No.: CFN92076; Hubei, China). The powder was dissolved in DMSO and added to the cells at different concentrations. Based on cytotoxicity data, Cal27 and JHU029 cells were treated with 10 µg/mL and JHU022 cells were treated with 20 µg/mL dose of M-I and incubated for 48 hr for further experiments. All the experiments were done at least in triplicate. […]
In general terms: In western blotting, separated proteins are transferred to a membrane and probed.

The subject of test [3] is cyclin D1. Put plainly: Western blot of treated HNC cells. The format is cell-based, human. The conditions noted are these: Cal27 and JHU029 cells, 48 hr; 2% BME or 10 µg/mL M-I. On the procedure: as §1, §2
Test [4] deals with insulin secretion. The conditions noted are these: cited from earlier work.

Regarding `CC(C)=CC(O)CC(C)[C@H]1CC[C@@]2(C)[C@@H]3[C@@H](O)C=C4[C@@H](CC[C@H](O)C4(C)C)[C@]3(C=O)CC[C@]12C` (stereo partly drawn) [M-I, (3S, 7S, 8S, 9R, 10R, 13R, 14S, 17R) 3,7-dihydroxy-17-(4-hydroxy-6-methylhept-5-en-2-yl)-4,4,13,14-tetramethyl-2,3,7,8,10,11, 12,15,16,17-decahydro-1H-cyclopenta[a]phenanthrene-9-carbaldehyde], the survivin expression entry in test [1] is “significant inhibition”. Further, in test [2], the c-Myc expression entry is given as “significant inhibition”. The “cyclin D1 expression” value in test [3] is reported as “significant inhibition”. The “insulin secretion in vitro” value in test [4] is on record as “stimulate insulin secretion”.
